Data from PMC7211202 (Investigational New Drugs, 2019).
“And” between values parts separate entries of the source, which are not always exact repeats. Identical values can stand only once.

Assay: Patient incidence of adverse events (CTCAE version 4.0)
Format: in vivo
Description: Each patient was monitored for 21 days for the occurrence of dose-limiting toxicities (DLTs), defined as febrile neutropenia, neutropenic infection, grade 4 neutropenia lasting >7 days, grade ≥ 3 thrombocytopenia lasting >7 days (solid tumors only), grade 3 thrombocytopenia with grade ≥ 2 bleeding (solid tumors only), grade 3 or 4 thrombocytopenia with grade > 1 bleeding (multiple myeloma only), grade 4 thrombocytopenia (solid tumors only), or grade 4 thrombocytopenia lasting >14 days (multiple myeloma only), or as grade ≥ 3 nausea, vomiting, or diarrhea after support; grade 3 fatigue lasting >7 days; any other grade ≥ 3 adverse event (AE); grade ≥ 3 kidney injury (multiple myeloma only), or treatment-related AEs not returning to grade ≤ 1 (solid tumors only) per Common Terminology Criteria for Adverse Events (CTCAE), version 4.0. The MTD was defined as the maximum dose, at which the probability of a DLT was ≤25% in Part 1A and ≤ 33% in Parts 1B and 1C. Treatment continued until disease progression, intolerable toxicity, or withdrawal of consent.
AEs were recorded for all enrolled patients.

[1] = dose escalation, 300 mg (n = 4)
[2] = dose escalation, 360 mg (n = 4)
[3] = dose escalation, 480 mg (n = 6)
[4] = dose escalation, Total (n = 39)

CC(C)[C@@H](CS(=O)(=O)C(C)C)N1C(=O)[C@@](C)(CC(=O)O)C[C@H](c2cccc(Cl)c2)[C@H]1c1ccc(Cl)cc1 [AMG 232]
Treatment-related AE: Upper abdominal pain [1]: 1 (25) n (%) | Treatment-related AE: Vomiting [1]: 3 (75) n (%) | Treatment-related serious AE: Abdominal pain (grade 2) [1]: 0 n (%) | Treatment-related serious AE: Dehydration (grade 2) [1]: 1 (25) n (%) | Treatment-related serious AE: Diarrhea [1]: 1 (25) n (%) | Treatment-related serious AE: Diarrhea, Grade 2 [1]: 0 n (%) | Treatment-related serious AE: Diarrhea, Grade 3 [1]: 1 (25) n (%) | Treatment-related serious AE: Febrile neutropenia (grade 3) [1]: 1 (25) n (%) | Treatment-related serious AE: Hematemesis (grade 3) [1]: 0 n (%) | Treatment-related serious AE: Nausea (grade 3) [1]: 0 n (%) | Treatment-related serious AE: Neutropenia (grade 4) [1]: 0 n (%) | Treatment-related serious AE: Non-cardiac chest pain (grade 3) [1]: 0 n (%) | Treatment-related serious AE: Thrombocytopenia (grade 4) [1]: 0 n (%) | Treatment-related serious AE: Vomiting [1]: 2 (50) n (%) | Treatment-related serious AE: Vomiting, Grade 2 [1]: 1 (25) n (%) | Treatment-related serious AE: Vomiting, Grade 3 [1]: 1 (25) n (%) | Patients with any treatment-emergent AE [2]: 4 (100) n (%) | Patients with any treatment-emergent serious AE [2]: 0 n (%) | Patients with any treatment-related AE [2]: 4 (100) n (%) | Patients with any treatment-related AE, Grade 3 [2]: 3 (75) n (%) | Patients with any treatment-related AE, Grade 4 [2]: 2 (50) n (%) | Patients with any treatment-related AE, Grade 5 [2]: 0 n (%) | Patients with any treatment-related serious AE [2]: 0 n (%) | Treatment-related AE: Abdominal pain [2]: 1 (25) n (%) | Treatment-related AE: Anemia [2]: 2 (50) n (%) | Treatment-related AE: Asthenia [2]: 2 (50) n (%) | Treatment-related AE: Decrease appetite [2]: 3 (75) n (%) | Treatment-related AE: Diarrhea [2]: 4 (100) n (%) | Treatment-related AE: Dysgeusia [2]: 1 (25) n (%) | Treatment-related AE: Fatigue [2]: 0 n (%) | Treatment-related AE: Myalgia [2]: 2 (50) n (%) | Treatment-related AE: Nausea [2]: 4 (100) n (%) | Treatment-related AE: Neutropenia [2]: 3 (75) n (%) | Treatment-related AE: Thrombocytopenia [2]: 4 (100) n (%) | Treatment-related AE: Upper abdominal pain [2]: 1 (25) n (%) | Treatment-related AE: Vomiting [2]: 3 (75) n (%) | Treatment-related serious AE: Abdominal pain (grade 2) [2]: 0 n (%) | Treatment-related serious AE: Dehydration (grade 2) [2]: 0 n (%) | Treatment-related serious AE: Diarrhea [2]: 0 n (%) | Treatment-related serious AE: Diarrhea, Grade 2 [2]: 0 n (%) | Treatment-related serious AE: Diarrhea, Grade 3 [2]: 0 n (%) | Treatment-related serious AE: Febrile neutropenia (grade 3) [2]: 0 n (%) | Treatment-related serious AE: Hematemesis (grade 3) [2]: 0 n (%) | Treatment-related serious AE: Nausea (grade 3) [2]: 0 n (%) | Treatment-related serious AE: Neutropenia (grade 4) [2]: 0 n (%) | Treatment-related serious AE: Non-cardiac chest pain (grade 3) [2]: 0 n (%) | Treatment-related serious AE: Thrombocytopenia (grade 4) [2]: 0 n (%) | Treatment-related serious AE: Vomiting [2]: 0 n (%) | Treatment-related serious AE: Vomiting, Grade 2 [2]: 0 n (%) | Treatment-related serious AE: Vomiting, Grade 3 [2]: 0 n (%) | Patients with any treatment-emergent AE [3]: 6 (100) n (%) | Patients with any treatment-emergent serious AE [3]: 4 (67) n (%) | Patients with any treatment-related AE [3]: 6 (100) n (%) | Patients with any treatment-related AE, Grade 3 [3]: 3 (50) n (%) | Patients with any treatment-related AE, Grade 4 [3]: 3 (50) n (%) | Patients with any treatment-related AE, Grade 5 [3]: 0 n (%) | Patients with any treatment-related serious AE [3]: 2 (33) n (%) | Treatment-related AE: Abdominal pain [3]: 0 n (%) | Treatment-related AE: Anemia [3]: 2 (33) n (%) | Treatment-related AE: Asthenia [3]: 0 n (%) | Treatment-related AE: Decrease appetite [3]: 1 (17) n (%) | Treatment-related AE: Diarrhea [3]: 6 (100) n (%) | Treatment-related AE: Dysgeusia [3]: 0 n (%) | Treatment-related AE: Fatigue [3]: 4 (67) n (%) | Treatment-related AE: Myalgia [3]: 1 (17) n (%) | Treatment-related AE: Nausea [3]: 3 (50) n (%) | Treatment-related AE: Neutropenia [3]: 3 (50) n (%) | Treatment-related AE: Thrombocytopenia [3]: 5 (83) n (%) | Treatment-related AE: Upper abdominal pain [3]: 0 n (%) | Treatment-related AE: Vomiting [3]: 4 (67) n (%) | Treatment-related serious AE: Abdominal pain (grade 2) [3]: 0 n (%) | Treatment-related serious AE: Dehydration (grade 2) [3]: 0 n (%) | Treatment-related serious AE: Diarrhea [3]: 0 n (%) | Treatment-related serious AE: Diarrhea, Grade 2 [3]: 0 n (%) | Treatment-related serious AE: Diarrhea, Grade 3 [3]: 0 n (%) | Treatment-related serious AE: Febrile neutropenia (grade 3) [3]: 0 n (%) | Treatment-related serious AE: Hematemesis (grade 3) [3]: 1 (17) n (%) | Treatment-related serious AE: Nausea (grade 3) [3]: 0 n (%) | Treatment-related serious AE: Neutropenia (grade 4) [3]: 1 (17) n (%) | Treatment-related serious AE: Non-cardiac chest pain (grade 3) [3]: 0 n (%) | Treatment-related serious AE: Thrombocytopenia (grade 4) [3]: 2 (33) n (%) | Treatment-related serious AE: Vomiting [3]: 0 n (%) | Treatment-related serious AE: Vomiting, Grade 2 [3]: 0 n (%) | Treatment-related serious AE: Vomiting, Grade 3 [3]: 0 n (%) | Patients with any treatment-emergent AE [4]: 37 (95%) n (%) and 37 (95) n (%) | Patients with any treatment-emergent serious AE [4]: 14 (36%) n (%) and 14 (36) n (%) | Patients with any treatment-related AE, Grade 3 [4]: 13 (33) n (%) | Patients with any treatment-related AE, Grade 4 [4]: 8 (21) n (%) | Patients with any treatment-related AE, Grade 5 [4]: 0 n (%) | Treatment-related AE: Abdominal pain [4]: 4 (10) n (%) | Treatment-related AE: Anemia [4]: 5 (13) n (%) | Treatment-related AE: Asthenia [4]: 4 (10) n (%) | Treatment-related AE: Decrease appetite [4]: 10 (26) n (%) | Treatment-related AE: Diarrhea [4]: 25 (64) n (%) | Treatment-related AE: Dysgeusia [4]: 4 (10) n (%) | Treatment-related AE: Fatigue [4]: 16 (41) n (%) | Treatment-related AE: Myalgia [4]: 4 (10) n (%) | Treatment-related AE: Nausea [4]: 20 (51) n (%) | Treatment-related AE: Neutropenia [4]: 8 (21) n (%) | Treatment-related AE: Thrombocytopenia [4]: 14 (36) n (%) | Treatment-related AE: Upper abdominal pain [4]: 4 (10) n (%) | Treatment-related AE: Vomiting [4]: 18 (46) n (%) | Treatment-related serious AE: Abdominal pain (grade 2) [4]: 1 (3) n (%) | Treatment-related serious AE: Dehydration (grade 2) [4]: 1 (3) n (%) | Treatment-related serious AE: Diarrhea [4]: 2 (5) n (%) | Treatment-related serious AE: Diarrhea, Grade 2 [4]: 1 (3) n (%) | Treatment-related serious AE: Diarrhea, Grade 3 [4]: 1 (3) n (%) | Treatment-related serious AE: Febrile neutropenia (grade 3) [4]: 1 (3) n (%) | Treatment-related serious AE: Hematemesis (grade 3) [4]: 1 (3) n (%) | Treatment-related serious AE: Nausea (grade 3) [4]: 1 (3) n (%) | Treatment-related serious AE: Neutropenia (grade 4) [4]: 1 (3) n (%) | Treatment-related serious AE: Non-cardiac chest pain (grade 3) [4]: 1 (3) n (%) | Treatment-related serious AE: Thrombocytopenia (grade 4) [4]: 2 (5) n (%) | Treatment-related serious AE: Vomiting [4]: 3 (8) n (%) | Treatment-related serious AE: Vomiting, Grade 2 [4]: 1 (3) n (%) | Treatment-related serious AE: Vomiting, Grade 3 [4]: 2 (5) n (%) | Treatment-emergent AE: abdominal pain (dose escalation, all patients): 21% | Treatment-emergent AE: anemia (dose escalation, all patients): 26% | Treatment-emergent AE: decreased appetite (dose escalation, all patients): 39% | Treatment-emergent AE: diarrhea (dose escalation, all patients): 67% | Treatment-emergent AE: fatigue (dose escalation, all patients): 41% | Treatment-emergent AE: nausea (dose escalation, all patients): 59% | Treatment-emergent AE: neutropenia (dose escalation, all patients): 26% | Treatment-emergent AE: thrombocytopenia (dose escalation, all patients): 36% | Treatment-emergent AE: vomiting (dose escalation, all patients): 51% | Treatment-related AE: Diarrhea (dose escalation, all patients): 64% | Treatment-related AE: Fatigue (dose escalation, all patients): 41% | Treatment-related AE: Nausea (dose escalation, all patients): 51% | Treatment-related AE: Neutropenia (dose escalation, all patients): 21% | Treatment-related AE: Thrombocytopenia (dose escalation, all patients): 36% | Treatment-related AE: Vomiting (dose escalation, all patients): 46% | Treatment-related AE: decreased appetite (dose escalation, all patients): 26% | Patients discontinuing treatment due to AEs (entire study (107 patients)): 21 n
